pEC50: −log10 of the molar value. Like-named read-outs stand apart in the source and are kept apart here.
Experiments:
HeLa MKYP cells [1] = assay: Toxicity / cell death measured by DAPI staining (take-up); format: cell-based; settings: 50 μM
Experimental: H2O2 treatment was performed as a control for cell death as measured by DAPI staining.
(§1) Briefly, HeLa MKYP cells were plated at 10,000 cells/well in 96 well plates along with compounds at various concentrations. Following 16 hrs of incubation, cells were treated with 1 uM FCCP/oligomycin for 6 hours, then analyzed via FACS for the presence of mitochondria in lysosomes (as determined by an emissions spectrum shift from the pH-sensitive mtKeima tag).

[2] = system: Hela MKYP (Mito-Keima/YFP-Parkin) cells; assay: Inspection of round cells; settings: Tables 6A-6D
Experimental: (§2) Briefly, the Hela MKYP (Mito-Keima/YFP-Parkin) cells were seeded at 10K cells/well. EP/MTK compounds were added at seeding (cells were still in suspension). The cells were incubated with the EP/MTK compounds for 16 hours, then 1 μM FCCP/oligomycin was added for 6 hours. Prior to harvesting, cells were scored by eye under 20× magnification for the presence or absence of crystalline or aggregated compound, or round cells.

[3] = Visual inspection of crystallization; format: physicochemical; parameters: key: 1: yes crystals; 0: no crystals; settings: Tables 5A-5D
Experimental: as §2

HeLa MKYP cells [4] = assay: Human mitophagy assay (HeLa MKYP, mtKeima FACS, FCCP/oligomycin); format: cell-based; settings: for pEC50: Table 3, read-out: Potency at 1 μM F/O toxin* (EC50 of mitophagy activation); for EC50: read-out: Potency (EC50 Max Mitophagy) (μM)*
Experimental: as §1, with “tag). Examples are shown in FIG. 1 through FIG. 13 below.” for “tag).”

[5] = Homo sapiens, HeLa, Table 3 Supplement A, as measured in Table 3
[6] = Table 3 Supplement A, as measured in Table 3

SMILES | Toxicity (% positive for DAPI takeup @ 50 μM) (HeLa MKYP cells [1]; Table 3) [%] | Toxicity (% positive for DAPI take-up at 50 μM)* (HeLa MKYP cells [1]; Table 3 Supplement A) [%] | Inspection of round cells ([2]; 1.6 μM) | Inspection of round cells ([2]; 3.1 μM) | Inspection of round cells ([2]; 6.3 μM) | Inspection of round cells ([2]; 12.5 μM) | Inspection of round cells ([2]; 25.0 μM) | Inspection of round cells ([2]; 50.0 μM) | Visual inspection of crystallization ([3]; 1.6 μM) | Visual inspection of crystallization ([3]; 3.1 μM) | Visual inspection of crystallization ([3]; 6.3 μM) | Visual inspection of crystallization ([3]; 12.5 μM) | Visual inspection of crystallization ([3]; 25.0 μM) | Visual inspection of crystallization ([3]; 50.0 μM) | pEC50 (HeLa MKYP cells [4]; Homo sapiens, HeLa) | EC50 (HeLa MKYP cells [4]; [5]) [µM] | other results
C[C@H](Nc1ncnc2[nH]cnc12)c1ccccc1 [Compound 27] | 11.7 | 13.52 | 0 | 0 | 0 | 0 | 0 | 0 | 0 | 0 | 0 | 0 | 0 | 0 | 5.70 | 2.09 | 
CC(Nc1ncnc2[nH]c(C3CC3)nc12)c1ccccc1 (stereo not drawn) [Compound 28] | 18.3 | 18.26 | 0 | 0 | 0 | 0 | 0 | 0 | 0 | 0 | 0 | 0 | 0 | 0 | 5.20 | 6.32 | 
C[C@@H](Nc1ncnc2[nH]c(C(F)(F)F)cc12)c1ccccc1 [Compound 38] | 63.7 | 52.58 | 0 | 0 | 0 | 0 | 0 | 1 | 0 | 0 | 0 | 0 | 0 | 0 | 5.51 | 3.62 | 
CCC(Nc1ncnc2[nH]c(C(F)(F)F)cc12)c1cncnc1 (stereo not drawn) [Compound 43] | 15.9 | 15.86 | 0 | 0 | 0 | 0 | 0 | 0 | 0 | 0 | 0 | 0 | 0 | 0 | 4.73 | 18.8 | 
C[C@H](Nc1ncnc2[nH]c(C(F)(F)F)cc12)c1cncnc1 [Compound 44] |  |  | 0 | 0 | 0 | 0 | 0 | 0 | 0 | 0 | 0 | 0 | 0 | 0 | 5.51 | 3.15 | Toxicity (% positive for DAPI take-up at 50 μM)* (HeLa MKYP cells [1]; human): 23.68%; Toxicity (% positive for DAPI takeup @ 50 μM) (HeLa MKYP cells [1]; human): 23.7%
CN(C)C1CCC(CNc2ncnc3[nH]c(C(F)(F)F)cc23)CC1 (stereo not drawn) [Compound 50] | 5.2 | 5.16 | 0 | 0 | 0 | 0 | 0 | 0 | 0 | 0 | 0 | 0 | 0 | 0 | < 4.30 |  | Potency (EC50 Max Mitophagy) (μM)* (HeLa MKYP cells [4]; [6]): 0.01 µM
C[C@@H](Nc1ncnc2[nH]cnc12)c1ccccc1 [Compound 63] | 11.5 |  |  |  |  |  |  |  |  |  |  |  |  |  |  |  | Toxicity (% positive for DAPI take-up at 50 μM)* (HeLa MKYP cells [1]; Table 3 Supplement A, listed as EP-0036422): 11.51%; pEC50 (HeLa MKYP cells [4]): 4.32; EC50 (HeLa MKYP cells [4]; [6]): > 25 µM
C[C@@H](Nc1nccc2[nH]cnc12)c1ccccc1 [Compound 64] | 7.6 | 7.63 |  |  |  |  |  |  |  |  |  |  |  |  | < 4.30 | > 25 | 
CC(CNc1ncnc2[nH]cnc12)c1ccccc1 (stereo not drawn) [Compound 65] | 28.9 | 28.92 |  |  |  |  |  |  |  |  |  |  |  |  | 5.44 | 3.61 | 
c1ccc(C2(Nc3ncnc4[nH]cnc34)CC2)cc1 [Compound 72] | 13.4 | 13.38 |  |  |  |  |  |  |  |  |  |  |  |  | < 4.30 | > 25 | 
Cc1nc2c(N[C@H](C)c3ccccc3)ncnc2[nH]1 [Compound 73] | 9.7 | 9.69 |  |  |  |  |  |  |  |  |  |  |  |  | < 4.30 | > 25 | 
Cc1nc2c(N[C@@H](C)c3ccccc3)ncnc2[nH]1 [Compound 74] | 31.9 | 31.93 |  |  |  |  |  |  |  |  |  |  |  |  | 5.34 | 4.65 | 

Reference: US20220162215A1, “COMPOSITIONS AND METHODS OF USING THE SAME FOR TREATMENT OF NEURODEGENERATIVE AND MITOCHONDRIAL DISEASE” (MITOKININ, INC., priority 2019, published 2022)
